# Values quoted from earlier work in paper PMC11320581 (ACS Infectious Diseases, 2024).
# Tested on: M. tuberculosis gyrase with single-resistance mutations at GyrA Ala90 and Asp94
# Conditions: cited from earlier work
structure (smiles),measurement,value
"C[C@@H]1CN2c3c(cc4c(N5C(=O)OC[C@@H]5C)noc4c3F)CC3(C(=O)NC(=O)NC3=O)[C@H]2[C@H](C)O1 [zoliflodacin, Zoliflodacin]","maximal double-stranded DNA scission with fluoroquinolone-resistant gyrases, fold higher than wild-type",2- to 5 fold
